Laboratory results: patent US20100267561A1, “HERBICIDAL PYRIDAZINONE DERIVATIVES” (priority 2007, published 2010)

Columns and labels:
Type in all cases: in vivo
[1] = test system: Russian thistle (Salsola iberica); assay: Test B pre-/postemergence plant response; details: Preemergence
Method in brief: (§1)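 Visual scoring from 0 (no effect) to 100 (complete control) against untreated controls was done 13 to 15 days after greenhouse treatment. Chemicals were formulated in a surfactant-containing non-phytotoxic solvent and applied to soil preemergence or to 1- to 4-leaf (2-18 cm) plants postemergence.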

[2] = test system: bermudagrass (Cynodon dactylon); assay: Test B pre-/postemergence plant response; details: for Bermudagrass plant response rating: 8 g ai/ha
Method in brief: as §1

[3] = test system: cocklebur (Xanthium strumarium); assay: Test B pre-/postemergence plant response; details: for Cocklebur plant response rating: 8 g ai/ha
Method in brief: as §1

[4] = test system: common (oilseed) sunflower (Helianthus annuus); assay: Test B pre-/postemergence plant response; details: Preemergence
Method in brief: as §1

[5] = test system: common ragweed (Ambrosia elation); assay: Test B pre-/postemergence plant response; details: for Ragweed plant response rating: 8 g ai/ha
Method in brief: as §1

[6] = test system: corn (Zea mays); assay: Test B pre-/postemergence plant response; details: for Corn plant response rating: 8 g ai/ha
Method in brief: as §1

[7] = test system: goosegrass (Eleusine indica); assay: Test B pre-/postemergence plant response; details: for Goosegrass plant response rating: 8 g ai/ha
Method in brief: as §1

[8] = test system: kochia (Kochia scoparia); assay: Test B pre-/postemergence plant response; details: for Kochia plant response rating: 8 g ai/ha
Method in brief: as §1

[9] = test system: lambsquarters (Chenopodium album); assay: Test B pre-/postemergence plant response; details: for Lambsquarters plant response rating: 8 g ai/ha
Method in brief: as §1

[10] = test system: large crabgrass (Digitaria sanguinalis); assay: Test B pre-/postemergence plant response; details: for Crabgrass, Large plant response rating: 8 g ai/ha
Method in brief: as §1

[11] = test system: soybean (Glycine max); assay: Test B pre-/postemergence plant response; details: for Soybean plant response rating: 8 g ai/ha
Method in brief: as §1

[12] = test system: surinam grass (Brachiaria decumbens); assay: Test B pre-/postemergence plant response; details: for Surinam Grass plant response rating: 8 g ai/ha
Method in brief: as §1

[13] = test system: wheat (Triticum aestivum); assay: Test B pre-/postemergence plant response; details: for Wheat plant response rating: 8 g ai/ha
Method in brief: as §1

[14] = test system: ducksalad (Heteranthera limosa); assay: Test B flooded paddy test plant response
Method in brief: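 Paddy-water application to 2-leaf plants in pots held under 3 cm of flooding; response is a 0–100 visual control rating against controls after 13 to 15 days, and a dash marks a missing result.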

[15] = 16 g ai/ha, scale 0 to 100 (0 no effect, 100 complete control)
[16] = 31 g ai/ha, 0 to 100 scale, 0 no effect, 100 complete control
[17] = Postemergence, 16 g ai/ha, scale 0 to 100
[18] = Postemergence, 31 g ai/ha, scale 0 to 100, 0 no effect, 100 complete control
[19] = Postemergence, 62 g ai/ha, scale 0 to 100, 0 no effect, 100 complete control
[20] = Preemergence, 16 g ai/ha, scale 0 to 100 (0 no effect, 100 complete control)
[21] = Preemergence, 31 g ai/ha, 0 to 100 scale, 0 no effect, 100 complete control
[22] = Preemergence, 62 g ai/ha, scale 0 to 100

## Cc1cc(-c2ccc(Cl)cc2)nn1-c1c(OC(=O)c2cccc(Cl)c2)cnn(C)c1=O [Compound 32]
[1]; [15]
  Plant response rating, Russian Thistle: 0
[1]; [16]
  Plant response rating, Russian Thistle: 0
[1]; 62 g ai/ha, scale 0 to 100
  Plant response rating, Russian Thistle: 0
[1]; 8 g ai/ha, scale 0 to 100
  Russian Thistle plant response rating: 0
[2]; postemergence, 0-100 scale
  Bermudagrass plant response rating: 60
[2]; [17]
  Plant response rating, Bermudagrass: 65
[2]; [18]
  Plant response rating, Bermudagrass: 100
[2]; [19]
  Plant response rating, Bermudagrass: 100
[2]; Preemergence, scale 0 to 100 (0 no effect, 100 complete control)
  Bermudagrass plant response rating: 0
[2]; [20]
  Plant response rating, Bermudagrass: 0
[2]; [21]
  Plant response rating, Bermudagrass: 0
[2]; [22]
  Plant response rating, Bermudagrass: 0
[3]; postemergence, 0-100 scale
  Cocklebur plant response rating: 0
[3]; [17]
  Plant response rating, Cocklebur: 0
[3]; [18]
  Plant response rating, Cocklebur: 0
[3]; [19]
  Plant response rating, Cocklebur: 0
[3]; [20]
  Plant response rating, Cocklebur: 0
[3]; [21]
  Plant response rating, Cocklebur: 0
[3]; [22]
  Plant response rating, Cocklebur: 0
[3]; Preemergence, scale 0 to 100
  Cocklebur plant response rating: 0
[4]; [15]
  Plant response rating, Sunflower: 0
[4]; [16]
  Plant response rating, Sunflower: 0
[4]; 62 g ai/ha, scale 0 to 100
  Plant response rating, Sunflower: 0
[4]; 8 g ai/ha, scale 0 to 100
  Sunflower plant response rating: 0
[5]; postemergence, 0-100 scale
  Ragweed plant response rating: 0
[5]; [17]
  Plant response rating, Ragweed: 0
[5]; [18]
  Plant response rating, Ragweed: 0
[5]; [19]
  Plant response rating, Ragweed: 0
[5]; [20]
  Plant response rating, Ragweed: 0
[5]; [21]
  Plant response rating, Ragweed: 0
[5]; [22]
  Plant response rating, Ragweed: 0
[5]; Preemergence, scale 0 to 100
  Ragweed plant response rating: 0
[6]; postemergence, 0-100 scale
  Corn plant response rating: 0
[6]; [17]
  Plant response rating, Corn: 0
[6]; [18]
  Plant response rating, Corn: 0
[6]; [19]
  Plant response rating, Corn: 0
[6]; [20]
  Plant response rating, Corn: 45
[6]; [21]
  Plant response rating, Corn: 60
[6]; [22]
  Plant response rating, Corn: 95
[6]; Preemergence, scale 0 to 100
  Corn plant response rating: 0
[7]; postemergence, 0-100 scale
  Goosegrass plant response rating: 0
[7]; [17]
  Plant response rating, Goosegrass: 65
[7]; [18]
  Plant response rating, Goosegrass: 70
[7]; [19]
  Plant response rating, Goosegrass: 70
[7]; [20]
  Plant response rating, Goosegrass: 98
[7]; [21]
  Plant response rating, Goosegrass: 98
[7]; [22]
  Plant response rating, Goosegrass: 100
[7]; Preemergence, scale 0 to 100
  Goosegrass plant response rating: 60
[8]; postemergence, 0-100 scale
  Kochia plant response rating: 0
[8]; [17]
  Plant response rating, Kochia: 0
[8]; [18]
  Plant response rating, Kochia: 0
[8]; [19]
  Plant response rating, Kochia: 0
[8]; [20]
  Plant response rating, Kochia: 0
[8]; [21]
  Plant response rating, Kochia: 0
[8]; [22]
  Plant response rating, Kochia: 0
[8]; Preemergence, scale 0 to 100
  Kochia plant response rating: 0
[9]; postemergence, 0-100 scale
  Lambsquarters plant response rating: 0
[9]; [17]
  Plant response rating, Lambsquarters: 0
[9]; [18]
  Plant response rating, Lambsquarters: 0
[9]; [19]
  Plant response rating, Lambsquarters: 0
[9]; [20]
  Plant response rating, Lambsquarters: 0
[9]; [21]
  Plant response rating, Lambsquarters: 0
[9]; [22]
  Plant response rating, Lambsquarters: 0
[9]; Preemergence, scale 0 to 100
  Lambsquarters plant response rating: 0
[10]; postemergence, 0-100 scale
  Crabgrass, Large plant response rating: 60
[10]; [17]
  Plant response rating, Crabgrass, Large: 85
[10]; [18]
  Plant response rating, Crabgrass, Large: 95
[10]; [19]
  Plant response rating, Crabgrass, Large: 98
[10]; [20]
  Plant response rating, Crabgrass, Large: 85
[10]; [21]
  Plant response rating, Crabgrass, Large: 100
[10]; [22]
  Plant response rating, Crabgrass, Large: 100
[10]; Preemergence, scale 0 to 100
  Crabgrass, Large plant response rating: 20
[11]; postemergence, 0-100 scale
  Soybean plant response rating: 0
[11]; [17]
  Plant response rating, Soybean: 0
[11]; [19]
  Plant response rating, Soybean: 0
[11]; [20]
  Plant response rating, Soybean: 0
[11]; [21]
  Plant response rating, Soybean: 0
[11]; [22]
  Plant response rating, Soybean: 0
[11]; Preemergence, scale 0 to 100
  Soybean plant response rating: 0
[12]; postemergence, 0-100 scale
  Surinam Grass plant response rating: 65
[12]; [17]
  Plant response rating, Surinam Grass: 70
[12]; [19]
  Plant response rating, Surinam Grass: 98
[12]; [20]
  Plant response rating, Surinam Grass: 75
[12]; [21]
  Plant response rating, Surinam Grass: 100
[12]; [22]
  Plant response rating, Surinam Grass: 100
[12]; Preemergence, scale 0 to 100
  Surinam Grass plant response rating: 70
[13]; postemergence, 0-100 scale
  Wheat plant response rating: 0
[13]; [17]
  Plant response rating, Wheat: 30
[13]; [20]
  Plant response rating, Wheat: 0
[13]; [21]
  Plant response rating, Wheat: 20
[13]; [22]
  Plant response rating, Wheat: 70
[13]; Preemergence, scale 0 to 100
  Wheat plant response rating: 0
[14]; Flood (flooded paddy test), 62 g ai/ha, scale 0 to 100, 0 no effect, 100 complete control
  Plant response rating, Ducksalad: 30
[14]; Flood (flooded paddy test), 125 g ai/ha, scale 0 to 100, 0 no effect, 100 complete control
  Plant response rating, Ducksalad: 40
[14]; Flood (flooded paddy test), 250 g ai/ha, scale 0 to 100, 0 no effect, 100 complete control
  Plant response rating, Ducksalad: 40
[14]; Flood, 31 g ai/ha, scale 0 to 100
  Plant response rating, Ducksalad: 30
